Converted amounts (≈) assume the structure as drawn. Peptide text beside a SMILES is read from it.
Columns and labels:
Bcl-2-like protein 1 = Bcl-2-like protein 1 (Mus musculus, UniProt Q64373); assay: Binding affinity to BCL-xl in murine B-cell lymphoma assessed as inhibition of BCL-xl/Bax protein-protein interaction
[1] = molecular target: T1, AP-1 complex subunit beta-1 (Homo sapiens, UniProt Q10567); assay: Binding affinity to beta-adaptin 1 (unknown origin) by fluorescence polarization assay
T1 sequence (Q10567 whole entry): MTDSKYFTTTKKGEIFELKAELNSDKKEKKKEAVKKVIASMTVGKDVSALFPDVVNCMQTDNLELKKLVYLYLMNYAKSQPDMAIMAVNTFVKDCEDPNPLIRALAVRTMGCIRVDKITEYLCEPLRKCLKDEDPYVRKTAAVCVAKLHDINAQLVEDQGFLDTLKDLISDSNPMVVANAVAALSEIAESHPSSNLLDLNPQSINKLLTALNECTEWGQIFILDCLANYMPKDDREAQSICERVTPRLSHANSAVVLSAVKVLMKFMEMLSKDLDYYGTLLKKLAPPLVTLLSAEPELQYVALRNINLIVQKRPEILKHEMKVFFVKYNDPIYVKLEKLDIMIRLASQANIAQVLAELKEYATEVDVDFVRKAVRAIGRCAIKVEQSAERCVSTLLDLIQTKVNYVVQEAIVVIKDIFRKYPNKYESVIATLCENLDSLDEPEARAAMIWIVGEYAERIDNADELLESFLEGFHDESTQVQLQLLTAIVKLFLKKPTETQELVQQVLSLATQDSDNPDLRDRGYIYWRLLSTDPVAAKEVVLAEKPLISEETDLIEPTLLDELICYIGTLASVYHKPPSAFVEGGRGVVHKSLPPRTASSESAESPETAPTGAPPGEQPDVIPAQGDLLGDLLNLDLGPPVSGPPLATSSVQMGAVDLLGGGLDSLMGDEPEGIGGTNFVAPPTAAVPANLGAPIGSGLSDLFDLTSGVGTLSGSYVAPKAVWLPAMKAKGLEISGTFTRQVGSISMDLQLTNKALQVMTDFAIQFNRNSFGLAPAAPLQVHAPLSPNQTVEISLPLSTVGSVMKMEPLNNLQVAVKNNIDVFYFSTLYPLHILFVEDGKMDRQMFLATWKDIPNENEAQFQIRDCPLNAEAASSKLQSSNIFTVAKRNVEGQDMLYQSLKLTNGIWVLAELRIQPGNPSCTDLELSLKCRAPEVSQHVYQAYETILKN

[2] = Solubility of compound in PBS; assay type: physicochemical

Chain of Bcl-2-like protein 1 (Q64373 whole entry): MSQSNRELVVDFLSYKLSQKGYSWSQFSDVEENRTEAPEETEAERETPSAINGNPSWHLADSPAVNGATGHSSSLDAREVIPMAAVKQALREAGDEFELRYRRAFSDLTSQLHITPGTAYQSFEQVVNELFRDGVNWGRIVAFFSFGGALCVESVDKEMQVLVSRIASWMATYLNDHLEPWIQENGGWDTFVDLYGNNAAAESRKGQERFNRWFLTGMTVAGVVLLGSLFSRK

CC[C@H](C)[C@H](NC(=O)[C@H](CCCN=C(N)N)NC(=O)[C@H](CCCCN)NC(=O)[C@H](CC(C)C)NC(=O)[C@H](CS)NC(=O)[C@H](CCC(=O)O)NC(=O)[C@H](CO)NC(=O)[C@H](CC(C)C)NC(=O)[C@H](CCCCN)NC(=O)[C@@H](N)CCCCN)C(=O)NCC(=O)N[C@@H](CC(=O)O)C(=O)N[C@@H](CCC(=O)O)C(=O)N[C@@H](CC(C)C)C(=O)N[C@@H](CC(=O)O)C(=O)N[C@@H](CO)C(=O)O (H-KKLSECLKRIGDELDS-OH)
Kd (Bcl-2-like protein 1): 13 µM

CC[C@H](C)[C@H](NC(=O)[C@H](CC(=O)O)NC(=O)[C@H](CC(=O)O)NC(=O)[C@@H](N)CC(=O)O)C(=O)N[C@H](C(=O)N[C@@H](Cc1ccccc1)C(=O)N[C@@H](CCC(=O)O)C(=O)N[C@@H](CC(=O)O)C(=O)N[C@@H](Cc1ccccc1)C(=O)N[C@@H](C)C(=O)N[C@@H](CCCNC(=N)N)C(=O)N[C@@H](CCC(N)=O)C(=O)N[C@@H](CCCNC(=N)N)C(=O)N[C@@H](CC(C)C)C(=O)N[C@@H](CCCCN)C(=O)NCC(=O)N[C@@H](CCSC)C(=O)N[C@@H](CCCCN)C(=O)N[C@@H](CC(=O)O)C(=O)N[C@@H](CC(=O)O)C(=O)O)C(C)C (H-DDDIVFEDFARQRLKGMKDD-OH)
Kd [1]: 2100 nM

COc1ccc(C2=N[C@@H](c3ccc(Cl)cc3)[C@@H](c3ccc(Cl)cc3)N2C(=O)N2CCNC(=O)C2)c(OC(C)C)c1 [NUTLIN-3]
solubility [2]: 100 µM (≈ 58.2 µg/mL)

From ChEMBL document CHEMBL4613322, “HOPPI-NMR: Hot-Peptide-Based Screening Assay for Inhibitors of Protein-Protein Interactions by NMR” (ACS Med Chem Lett, 2020)
